Key:
Experiment in all cases: relative viability (nuclei count vs DMSO), 5 days (fraction); higher = more cells survive
GW-2580 + Lapatinib = compound: COC1=CC=C(C=C1)COC2=C(C=C(C=C2)CC3=CN=C(N=C3N)N)OC [GW-2580] + CS(=O)(=O)CCNCc1ccc(-c2ccc3ncnc(Nc4ccc(OCc5cccc(F)c5)c(Cl)c4)c3c2)o1 [Lapatinib] (partner 2 µM)
Procedure, shortened: (§1)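 Five library-drug doses in √10 steps were combined with a fixed anchor-drug dose, or a single drug was given alone, by pin tool to lung cancer cell lines in 1536-well plates the day after seeding. Nuclei were stained and counted after 5 days. Relative viability is the nuclei count in treated wells over that in vehicle wells, taken as the median of duplicate plates.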

GW-2580 + Dasatinib = compound: COC1=CC=C(C=C1)COC2=C(C=C(C=C2)CC3=CN=C(N=C3N)N)OC [GW-2580] + Cc1nc(Nc2ncc(C(=O)Nc3c(C)cccc3Cl)s2)cc(N2CCN(CCO)CC2)n1 [Dasatinib] (partner 0.075 µM)
Procedure, shortened: as §1

Fedratinib + Navitoclax = compound: Cc1cnc(Nc2ccc(OCCN3CCCC3)cc2)nc1Nc1cccc(S(=O)(=O)NC(C)(C)C)c1 [Fedratinib] + CC1(C)CCC(c2ccc(Cl)cc2)=C(CN2CCN(c3ccc(C(=O)NS(=O)(=O)c4ccc(N[C@H](CCN5CCOCC5)CSc5ccccc5)c(S(=O)(=O)C(F)(F)F)c4)cc3)CC2)C1 [Navitoclax] (partner 0.5 µM)
Procedure, shortened: as §1

Fedratinib + Crizotinib = compound: Cc1cnc(Nc2ccc(OCCN3CCCC3)cc2)nc1Nc1cccc(S(=O)(=O)NC(C)(C)C)c1 [Fedratinib] + C[C@@H](Oc1cc(-c2cnn(C3CCNCC3)c2)cnc1N)c1c(Cl)ccc(F)c1Cl [Crizotinib] (partner 1 µM)
Procedure, shortened: as §1

Fedratinib + Decitabine = compound: Cc1cnc(Nc2ccc(OCCN3CCCC3)cc2)nc1Nc1cccc(S(=O)(=O)NC(C)(C)C)c1 [Fedratinib] + Nc1ncn([C@H]2C[C@H](O)[C@@H](CO)O2)c(=O)n1 [Decitabine] (partner 2 µM)
Procedure, shortened: as §1

Fedratinib + Olaparib = compound: Cc1cnc(Nc2ccc(OCCN3CCCC3)cc2)nc1Nc1cccc(S(=O)(=O)NC(C)(C)C)c1 [Fedratinib] + O=C(c1cc(Cc2n[nH]c(=O)c3ccccc23)ccc1F)N1CCN(C(=O)C2CC2)CC1 [Olaparib] (partner 8 µM)
Procedure, shortened: as §1

Row | Cell Line | relative viability (GW-2580 + Lapatinib; first compound 0.08 µM) | relative viability (GW-2580 + Lapatinib; first compound 0.8 µM) | relative viability (GW-2580 + Lapatinib; first compound 2.53 µM) | relative viability (GW-2580 + Lapatinib; first compound 8 µM) | relative viability (GW-2580 + Dasatinib; first compound 0.08 µM) | relative viability (GW-2580 + Dasatinib; first compound 0.8 µM) | relative viability (GW-2580 + Dasatinib; first compound 2.53 µM) | relative viability (GW-2580 + Dasatinib; first compound 8 µM) | relative viability (Fedratinib + Navitoclax; first compound 0.1 µM) | relative viability (Fedratinib + Navitoclax; first compound 0.3162 µM) | relative viability (Fedratinib + Navitoclax; first compound 1 µM) | relative viability (Fedratinib + Crizotinib; first compound 0.1 µM) | relative viability (Fedratinib + Crizotinib; first compound 0.3162 µM) | relative viability (Fedratinib + Crizotinib; first compound 1 µM) | relative viability (Fedratinib + Decitabine; first compound 0.1 µM) | relative viability (Fedratinib + Decitabine; first compound 0.3162 µM) | relative viability (Fedratinib + Decitabine; first compound 1 µM) | relative viability (Fedratinib + Olaparib; first compound 0.1 µM) | relative viability (Fedratinib + Olaparib; first compound 0.3162 µM) | relative viability (Fedratinib + Olaparib; first compound 1 µM)
1 | 201T | 1.09 | 1.11 | 0.983 | 1.06 | 0.637 | 0.544 | 0.509 | 0.532 | 1.16 | 1.18 | 1.21 | 1.01 | 1.04 | 0.99 | 0.78 | 0.855 | 0.877 | 0.846 | 0.867 | 0.794
2 | A549 | 1.11 | 1.04 | 0.89 | 0.869 | – | – | – | – | 1.55 | 1.2 | 1.1 | 0.638 | 0.609 | 0.687 | 0.121 | 0.302 | 0.257 | 0.391 | 0.269 | 0.354
3 | A-427 | 1.17 | 1.15 | 0.98 | 1.07 | 0.758 | 0.794 | 0.511 | 0.735 | 0.973 | 0.905 | 0.933 | 0.802 | 0.755 | 0.686 | 0.596 | 0.561 | 0.524 | 0.648 | 0.708 | 0.716
4 | ABC-1 | 1.42 | 1.03 | – | 1.18 | 0.559 | 0.675 | 0.55 | 0.534 | – | – | – | 0.566 | 1.1 | 0.769 | 0.976 | 1.09 | 1.01 | 0.657 | 0.984 | 0.822
5 | BEN | 0.642 | 0.795 | 0.481 | 0.709 | 0.267 | 0.397 | 0.222 | 0.308 | 0.0815 | 0.055 | 0.0392 | 0.716 | 0.91 | 0.784 | 0.582 | 0.693 | 0.608 | 1.07 | 1.01 | 0.972
6 | CAL-12T | 0.601 | 0.662 | 0.545 | 0.735 | 0.485 | 0.443 | 0.438 | 0.505 | 1 | 1.15 | 1.13 | 0.262 | 0.588 | 0.322 | – | – | – | 0.654 | 0.737 | 0.764
7 | COR-L23 | 1.26 | 1.22 | 1.06 | 1.06 | 0.566 | 0.502 | 0.519 | 0.464 | 0.936 | 1.06 | 0.899 | 0.55 | 0.526 | 0.486 | 0.4 | 0.416 | 0.177 | 0.326 | 0.381 | 0.302
8 | COR-L 105 | 0.429 | 0.393 | 0.336 | 0.351 | 0.314 | 0.373 | 0.28 | 0.342 | 0.568 | 0.657 | 0.689 | 0.539 | 0.686 | 0.391 | 0.669 | 0.611 | 0.511 | 0.669 | 0.693 | 0.708
9 | Calu-6 | 1.14 | 1.18 | 1.06 | 1.08 | – | – | – | – | 0.828 | 0.795 | 0.727 | 0.753 | 0.701 | 0.677 | – | – | – | 0.618 | 0.588 | 0.55
10 | ChaGo-K-1 | – | – | – | – | 0.663 | 0.552 | 0.605 | 0.587 | 0.786 | 1.11 | 0.425 | 0.851 | 1.06 | 0.975 | 0.488 | 0.513 | 0.544 | 0.469 | 0.402 | 0.391
11 | EBC-1 | 0.193 | 0.219 | 0.214 | 0.21 | – | – | – | – | 0.28 | 0.282 | 0.155 | 0.184 | 0.213 | 0.185 | – | – | – | 0.609 | 0.654 | 0.551
12 | EKVX | 0.181 | 0.236 | 0.189 | 0.18 | 0.613 | 0.655 | 0.431 | 0.527 | 1.08 | 0.918 | 0.944 | 1.05 | 0.889 | 0.958 | 0.315 | 0.37 | 0.363 | 0.969 | 0.811 | 0.853
13 | EMC-BAC-2 | 0.909 | 0.95 | 0.84 | 0.901 | 0.317 | 0.308 | 0.264 | 0.316 | 1.19 | 1.15 | 1.11 | 0.615 | 0.73 | 0.7 | 1.01 | 1.07 | 0.988 | 0.493 | 0.455 | 0.472
14 | EPLC-272H | 1.13 | 1.04 | 0.886 | 0.916 | 0.353 | 0.385 | – | 0.283 | 1.14 | 0.936 | 1.09 | 1 | 0.87 | 0.757 | 0.312 | 0.393 | 0.344 | 0.601 | 0.847 | 0.459
15 | H3255 | 0.216 | 0.265 | 0.234 | 0.249 | 0.287 | 0.436 | 0.345 | 0.281 | 0.533 | 0.385 | 0.384 | 0.873 | 0.805 | 0.723 | 0.607 | 0.685 | 0.507 | 0.532 | 0.518 | 0.522
16 | HARA | 0.757 | 0.902 | 0.535 | 0.63 | 0.276 | 0.253 | 0.261 | 0.0615 | 1.17 | 1.12 | 1.15 | 1.16 | 1.04 | 1.05 | 0.485 | 0.551 | 0.427 | 0.785 | 0.826 | 0.557

— the supplement of paper PMC10307832
